Measured values: patent US12187814B1, “Stapled antimicrobial peptide” (KING SAUD UNIVERSITY, priority 2024, dated 2025)
In brackets after ≈: the same amount, converted by molar mass. Like-named read-outs stand apart in the source and are kept apart here. Bridge positions count the residues as written; N and C are the ends. Square brackets hold non-standard residues; d marks the D form. Peptide text beside a SMILES is read from it. S5 = C=CCCC[C@](C)(N)C(=O)O

Key:
[1] = test system: MRSA; test: microbe, parasite or virus in culture; details: Staphylococcus aureus
[2] = test system: Staphylococcus aureus; test: microbe, parasite or virus in culture
[3] = test system: MRSA; test: Agar diffusion test (modified Kirby-Bauer), zone of inhibition; assay type: cell-based, Staphylococcus aureus; details: 30 μl per well, sAMP1 100 μg/ml, Kanamycin 50 μg/ml, 24 hours
From the text: (§1) The agar diffusion method was used to examine the synthesized AMP's antibacterial activity. Pure colonies of Staphylococcus aureus and MRSA were used for antibacterial susceptibility testing according to Clinical Laboratory Standards Institute (CLSI) 2021 guideline) by using a modified Kirby-Bauer disk diffusion technique (Humphries, R. et al, “Overview of Changes to the Clinical and Laboratory Standards Institute Performance Standards for Antimicrobial Susceptibility Testing”, M100, 31st Edition, J. Clin. Microbiol. 2021 Nov. 18; 59 (12): e0021321). In brief, homogeneous colonies were chosen from each microbial strain and grown on Mullar Hilton broth at log phase. 0.5 McFarland standard culture was used to spread on to the Mullar Hilton agar plates. Freshly prepared (30 μl each) of Kanamycin 50 μg/ml and sAMP1 100 μg/ml was poured into 4 mm diameter well, blank well with an equivalent amount of saline served as a […] control. The plates were incubated for 24 hours, and the diameter of the inhibition zone was measured to determine susceptibility or resistance. The full analysis was carried out three times.

[4] = test system: Staphylococcus aureus; test: as above; assay type: cell-based; details: 30 μl per well, sAMP1 100 μg/ml, Kanamycin 50 μg/ml, 24 hours
From the text: as §1

[5] = test system: MCF-7 breast cancer cells
Method: Cytotoxicity & MTT Testing
(§2) Cell line MCF-7 and A549 cells were cultured under CO2 (5%) at 37° C. using Dulbecco's Modified Eagle's Medium (DMEM), accompanied with 1% mixture of “Penicillin-Streptomycin”, 10% Fetal Bovine Serum (FBS) and 1% L-Glutamine.

[6] = test system: A549 lung cancer cells
Method: Cytotoxicity & MTT Testing
as §2

[7] = test system: MRSA

Row | MIC [1] [mg/L] | MIC [2] [mg/L] | IC50 cell proliferation (MTT) ([5]; 24 h) [mg/L] | IC50 cell proliferation (MTT) ([6]; 24 h) [mg/L] | MIC 96-well plate result (growth), replicates 1-3 ([7]; sAMP1 1.5625 μg/ml (row G)) | MIC 96-well plate result (growth), replicates 1-3 ([7]; sAMP1 3.125 μg/ml (row F)) | MIC 96-well plate result (growth), replicates 1-3 ([7]; sAMP1 6.25 μg/ml (row E)) | MIC 96-well plate result (growth), replicates 1-3 ([7]; sAMP1 12.5 μg/ml (row D)) | Compound | zone of inhibition at 50 µg/mL ([3]; Staphylococcus aureus, read-out: Zone of Inhibition (mm), Mean ± SD, n = 3) [mm] | zone of inhibition at 50 µg/mL ([4]; read-out: Zone of Inhibition (mm), Mean ± SD, n = 3) [mm] | anti-cell proliferation (MTT assay) ([5]; MCF-7 cells) | effect on proliferation ([5]; MCF-7 cells, 25 μg/ml) | Zone of Inhibition (mm), Mean ± SD, n = 3 [3] [mm] | anti-cell proliferation (MTT assay) ([6]; A549 cells) | effect on proliferation ([6]; A549 cells, 25 μg/ml) | Zone of Inhibition (mm), Mean ± SD, n = 3 [4] [mm]
1 | 3.12 (≈ 6.45 µM) | 3.12 (≈ 6.45 µM) | – | – | – | – | – | – | NC[C@H]1O[C@H](O[C@H]2[C@H](O)[C@@H](O[C@H]3O[C@H](CO)[C@@H](O)[C@H](N)[C@H]3O)[C@H](N)C[C@@H]2N)[C@H](O)[C@@H](O)[C@@H]1O [Kanamycin, reference compound] | 21.6 ± 2.17 | 19.1 ± 1.38 | – | – | – | – | – | –
2 | – | – | 35.82 (≈ 16.8 µM) | 54.22 (≈ 25.5 µM) | Growth | Growth | Growth | Growth | CC[C@H](C)[C@H](NC(=O)[C@H](CCCNC(=N)N)NC(=O)[C@H](CCCCN)NC(=O)[C@]1(C)CCCC=CCCC[C@](C)(NC(=O)[C@H](CCCCN)NC(=O)[C@H](CCC(=O)O)NC(=O)[C@H](CCCCN)NC(=O)[C@H](CO)NC(=O)[C@H](CCCCN)NC(=O)[C@H](CCCNC(=N)N)NC(=O)[C@H](Cc2ccccc2)NC(=O)[C@@H](N)Cc2ccccc2)C(=O)NCC(=O)N[C@@H](CCCCN)C(=O)N[C@@H](CCC(=O)O)C(=O)N1)C(=O)N[C@H](C(N)=O)C(C)C [sAMP1, FFRKSKEK-S5-GKE-S5-KRIV] (H-FFRKSKEK[S5]GKE[S5]KRIV-NH2; staple 9-13; N-terminus assumed) | – | – | dose-dependent anti-cell proliferation | significantly reduced the proliferation | 25.31±1.53 | dose-dependent anti-cell proliferation | significantly reduced the proliferation | 22.52±2.15
